Source: DBAASP
Converted amounts (≈) assume the structure as drawn. “And” between values parts separate entries of the source, which are not always exact repeats. Identical values can stand only once. Values belong to the compound of their own block, whether it stands above or below them.

Key:
Test in all cases: ≥ marks a high value that may be exact or a test limit, other limits are often not marked, values filed in µg/mL are converted to µM
Escherichia coli O157 = test system: Escherichia coli O157
[1] = test system: Escherichia coli ATCC 25404
[2] = test system: Staphylococcus aureus ATCC 29213
Salmonella typhimurium = test system: Salmonella typhimurium
[3] = test system: Staphylococcus aureus ATCC 43300
[4] = test system: Micrococcus luteus ATCC 10420
[5] = test system: Staphylococcus epidermidis ATCC 9709
Listeria monocytogenes = test system: Listeria monocytogenes
[6] = test system: Staphylococcus epidermidis
Helicobacter pylori = test system: Helicobacter pylori
Escherichia coli = test system: Escherichia coli
[7] = test system: Staphylococcus aureus A170
[8] = test system: Salmonella enterica subsp. enterica serovar Paratyphi A
[9] = test system: Escherichia coli CIB 84492
[10] = test system: Candida albicans CIB 45437
[11] = test system: Staphylococcus aureus CIB 85462
[12] = test system: Escherichia coli ATCC 25922
[13] = test system: Staphylococcus aureus ATCC 25923
[14] = test system: Candida albicans ATCC 20032
[15] = test system: Bacillus subtilis ATCC 6633
Streptococcus mutans = test system: Streptococcus mutans
[16] = test system: Streptococcus sanguinis NY101
[17] = test system: Veillonella atypica PK1910
[18] = test system: Streptococcus mitis ATCC 903
[19] = test system: Lacticaseibacillus casei ATCC 4646
[20] = test system: Streptococcus gordonii Challis DL1
[21] = test system: Salmonella enterica subsp. enterica serovar Choleraesuis CMCC 50020
Bacillus subtilis 1A751 = test system: Bacillus subtilis 1A751
[22] = test system: Corynebacterium xerosis C875
[23] = test system: Enterococcus faecalis ATCC 29212
Escherichia coli DC2 = test system: Escherichia coli DC2
Escherichia coli UB1005 = test system: Escherichia coli UB1005
[24] = test system: Pseudomonas aeruginosa ATCC 27853
[25] = test system: Staphylococcus epidermidis C621
[26] = test system: Candida albicans ATCC 14053
[27] = test system: Candida tropicalis ATCC 13803
Escherichia coli D31 = test system: Escherichia coli D31

MIC (Escherichia coli O157): ≥ 64 µM
MIC [1]: ≥ 64 µM
MIC [2]: 8 µM (≈ 11.5 µg/mL)
MIC (Salmonella typhimurium): ≥ 64 µM
MIC [3]: 16 µM (≈ 23 µg/mL)
MIC [4]: 8 µM (≈ 11.5 µg/mL)
MIC [5]: 16 µM (≈ 23 µg/mL)
MIC (Listeria monocytogenes): ≥ 64 µM
Compound: CC(C)C[C@H](NC(=O)[C@H](CC(C)C)NC(=O)[C@H](Cc1cnc[nH]1)NC(=O)[C@H](CO)NC(=O)[C@H](CC(C)C)NC(=O)[C@H](C)NC(=O)[C@H](Cc1cnc[nH]1)NC(=O)[C@H](Cc1ccccc1)NC(=O)[C@H](CC(C)C)NC(=O)[C@H](C)NC(=O)CNC(=O)[C@H](CC(C)C)NC(=O)[C@@H](N)Cc1ccccc1)C(=O)O [FLGALFHALSHLL]

MIC [6]: 20 µM (≈ 40 µg/mL)
MIC (Helicobacter pylori): 7.52 µM and 5.01 µM and 6.01 µM
MIC (Escherichia coli): 7.52 µM (≈ 15 µg/mL)
MIC [7]: 20 µM (≈ 40 µg/mL)
MIC [8]: 7.52 µM (≈ 15 µg/mL)
MIC (Listeria monocytogenes): 20 µM (≈ 40 µg/mL)
Compound: C[C@@H](O)[C@H](NC(=O)[C@H](CS)NC(=O)[C@H](Cc1ccccc1)NC(=O)[C@H](CS)NC(=O)[C@H](CCCN=C(N)N)NC(=O)[C@H](CCCN=C(N)N)NC(=O)[C@H](CCCN=C(N)N)NC(=O)[C@H](Cc1ccccc1)NC(=O)CNC(=O)[C@H](CCCN=C(N)N)NC(=O)[C@H](CS)NC(=O)[C@H](CC(N)=O)NC(=O)CNC(=O)CNC(=O)[C@H](CO)NC(=O)[C@@H](N)Cc1ccccc1)C(=O)N[C@@H](CCCCN)C(N)=O [FSGGNCRGFRRRCFCTK]

MIC [9]: 15.4 µM (≈ 32 µg/mL)
MIC [10]: 30.8 µM (≈ 63.9 µg/mL)
MIC [11]: 7.69 µM (≈ 16 µg/mL)
MIC [12]: 15.4 µM (≈ 32 µg/mL)
MIC [13]: 7.69 µM (≈ 16 µg/mL)
Compound: CC[C@H](C)[C@H](NC(=O)CN)C(=O)N[C@@H](Cc1ccccc1)C(=O)NCC(=O)N[C@@H](CCCCN)C(=O)N[C@H](C(=O)N[C@@H](CC(C)C)C(=O)NCC(=O)N[C@H](C(=O)NCC(=O)N[C@@H](CCCCN)C(=O)N[C@@H](CCCCN)C(=O)N[C@H](C(=O)N[C@@H](CC(C)C)C(=O)N[C@H]1CSSC[C@@H](C(=O)O)NC(=O)[C@H](CCSC)NC(=O)CNC(=O)[C@H](CO)NC(=O)[C@H](CC(C)C)NC(=O)CNC1=O)C(C)C)C(C)C)[C@@H](C)CC [GIFGKILGVGKKVLCGLSGMC]

MIC [12]: 7.05 µM (≈ 18.8 µg/mL)
MIC [14]: ≥ 37.5 µM
MIC [15]: ≥ 37.5 µM
MIC [13]: 3.52 µM (≈ 9.4 µg/mL)
Compound: CC[C@H](C)[C@H](NC(=O)CN)C(=O)NCC(=O)NCC(=O)N[C@@H](CCCCN)C(=O)N[C@H](C(=O)N[C@@H](CC(C)C)C(=O)NCC(=O)NCC(=O)N[C@@H](CC(C)C)C(=O)N[C@@H](CCCCN)C(=O)N[C@H](C(=O)N[C@@H](C)C(=O)N[C@@H](CC(C)C)C(=O)N[C@@H](CCCCN)C(=O)NCC(=O)N[C@@H](C)C(=O)N[C@@H](C)C(=O)N[C@@H](CCCCN)C(=O)N[C@@H](CCC(=O)O)C(=O)N[C@@H](CC(C)C)C(=O)N[C@@H](C)C(=O)N[C@@H](CO)C(=O)N[C@H](C(=O)N[C@@H](Cc1ccc(O)cc1)C(=O)N[C@@H](CC(C)C)C(=O)N[C@@H](Cc1cnc[nH]1)C(N)=O)[C@@H](C)O)[C@@H](C)O)[C@@H](C)CC [GIGGKILGGLKTALKGAAKELASTYLH]

MIC (Streptococcus mutans): 2.83 µM (≈ 8 µg/mL)
MIC [16]: 5.67 µM (≈ 16 µg/mL)
MIC [17]: 2.83 µM (≈ 8 µg/mL)
MIC [18]: 22.7 µM (≈ 64 µg/mL)
MIC [19]: 5.67 µM (≈ 16 µg/mL)
MIC [20]: 11.3 µM (≈ 32 µg/mL)
Compound: CC[C@H](C)[C@H](N)C(=O)N[C@@H](CCCCN)C(=O)N[C@@H](CCC(N)=O)C(=O)N[C@@H](CC(C)C)C(=O)N[C@@H](CC(C)C)C(=O)N[C@@H](Cc1cnc[nH]1)C(=O)N[C@@H](Cc1ccccc1)C(=O)N[C@@H](Cc1ccccc1)C(=O)N[C@@H](CCC(N)=O)C(=O)N[C@@H](CCCN=C(N)N)C(=O)N[C@@H](Cc1ccccc1)C(=O)NCC(=O)NCC(=O)NCC(=O)N[C@@H](CCCN=C(N)N)C(=O)N[C@@H](Cc1c[nH]c2ccccc12)C(=O)N[C@@H](CCCN=C(N)N)C(=O)N[C@@H](Cc1c[nH]c2ccccc12)C(=O)N[C@@H](CCCN=C(N)N)C(=O)N[C@@H](Cc1c[nH]c2ccccc12)C(=O)N[C@@H](Cc1ccccc1)C(N)=O [IKQLLHFFQRFGGGRWRWRWF]

MIC [12]: 3.34 µM (≈ 7.99 µg/mL)
MIC (Bacillus subtilis 1A751): ≥ 53.4 µM
MIC [13]: 3.34 µM (≈ 7.99 µg/mL)
Compound: CC[C@H](C)[C@H](NC(=O)[C@H](CCCCN)NC(=O)[C@@H](NC(=O)[C@H](CC(C)C)NC(=O)[C@@H](NC(=O)[C@H](CCCCN)NC(=O)[C@H](CC(C)C)NC(=O)[C@H](Cc1ccccc1)NC(=O)[C@H](Cc1ccccc1)NC(=O)[C@H](CCCCN)NC(=O)[C@@H](N)CCCCN)C(C)C)[C@@H](C)O)C(=O)N[C@@H](CCCN=C(N)N)C(=O)N[C@H]1CSSC[C@@H](C(=O)N[C@@H](CCCN=C(N)N)C(=O)N[C@H](C(=O)O)[C@@H](C)O)NC(=O)CNC(=O)CNC(=O)[C@H](C)NC(=O)[C@H](C(C)C)NC(=O)[C@H](CCCCN)NC1=O [KKFFLKVLTKIRCKVAGGCRT]
MIC [21]: 6.67 µM (≈ 16 µg/mL)

MIC [22]: 4 µM (≈ 7.34 µg/mL)
MIC [23]: > 32 µM
MIC (Escherichia coli DC2): 16 µM (≈ 29.4 µg/mL)
MIC (Escherichia coli UB1005): ≥ 32 µM
MIC [12]: > 32 µM
MIC [24]: > 32 µM
MIC [15]: 16 µM (≈ 29.4 µg/mL)
MIC [13]: > 32 µM
MIC [25]: ≥ 32 µM
Compound: C[C@H](NC(=O)[C@H](C)NC(=O)[C@H](CCCCN)NC(=O)[C@H](CCCCN)NC(=O)[C@@H](N)CCCCN)C(=O)N[C@@H](C)C(=O)N[C@@H](Cc1ccccc1)C(=O)N[C@@H](C)C(=O)N[C@@H](C)C(=O)N[C@@H](Cc1c[nH]c2ccccc12)C(=O)N[C@@H](C)C(=O)N[C@@H](C)C(=O)N[C@@H](Cc1ccccc1)C(=O)N[C@@H](C)C(=O)N[C@@H](CCCCN)C(=O)N[C@@H](CCCCN)C(=O)N[C@@H](CCCCN)C(N)=O [KKKAAAFAAWAAFAKKK]

MIC [26]: 9.66 µM (≈ 44.8 µg/mL)
MIC [27]: 4.87 µM (≈ 22.6 µg/mL)
MIC [24]: 19.1 µM (≈ 88.6 µg/mL)
MIC [2]: 19.1 µM (≈ 88.6 µg/mL)
MIC (Escherichia coli D31): 4.87 µM (≈ 22.6 µg/mL)
Compound: CC[C@H](C)[C@@H]1NC(=O)CNC(=O)[C@H](CCCCN)NC(=O)[C@H](CC(N)=O)NC(=O)[C@H](CCCN=C(N)N)NC(=O)[C@H](CCCN=C(N)N)NC(=O)[C@@H](NC(=O)[C@H](CO)NC(=O)[C@H](CCC(N)=O)NC(=O)[C@H](CO)NC(=O)[C@H](CC(N)=O)NC(=O)[C@H](CCCN=C(N)N)NC(=O)[C@@H](NC(=O)CNC(=O)[C@@H](N)CCC(N)=O)C(C)C)CSSC[C@@H]2NC(=O)[C@H](CCCCN)NC(=O)[C@H](C(C)C)NC(=O)[C@H](CCC(N)=O)NC(=O)[C@H](C)NC(=O)CNC(=O)[C@H](CC(C)C)NC(=O)[C@@H]3CSSC[C@H](NC1=O)C(=O)N[C@@H](C(C)C)C(=O)N1CCC[C@H]1C(=O)N[C@@H]([C@@H](C)CC)C(=O)N[C@@H](CCCN=C(N)N)C(=O)N[C@@H](CSSC[C@@H](C(=O)N[C@@H](CCCN=C(N)N)C(=O)N[C@@H](CCCN=C(N)N)C(=O)N[C@@H](CCCCN)C(=O)O)NC2=O)C(=O)N1CCC[C@H]1C(=O)NCC(=O)N[C@@H](CO)C(=O)N[C@@H](CCSC)C(=O)N[C@@H](CCCN=C(N)N)C(=O)N[C@@H](CCC(N)=O)C(=O)N[C@@H]([C@@H](C)CC)C(=O)NCC(=O)N[C@@H]([C@@H](C)O)C(=O)N3 [QGVRNSQSCRRNKGICVPIRCPGSMRQIGTCLGAQVKCCRRK]
